According to patent US10829501B2 (BRISTOL-MYERS SQUIBB COMPANY, priority 2016, dated 2020):

Biological target: ROCK2 (Homo sapiens, UniProt O75116)
Assay: ROCK2 kinase inhibition assay (LABCHIP 3000 Reader, FITC peptide substrate);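 also: rho kinase reaction read by separating phosphorylated from unphosphorylated peptide on chip, with inhibition of kinase activity computed per concentration across a dose-response series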

Chain of ROCK2 (O75116 whole entry, species assumed): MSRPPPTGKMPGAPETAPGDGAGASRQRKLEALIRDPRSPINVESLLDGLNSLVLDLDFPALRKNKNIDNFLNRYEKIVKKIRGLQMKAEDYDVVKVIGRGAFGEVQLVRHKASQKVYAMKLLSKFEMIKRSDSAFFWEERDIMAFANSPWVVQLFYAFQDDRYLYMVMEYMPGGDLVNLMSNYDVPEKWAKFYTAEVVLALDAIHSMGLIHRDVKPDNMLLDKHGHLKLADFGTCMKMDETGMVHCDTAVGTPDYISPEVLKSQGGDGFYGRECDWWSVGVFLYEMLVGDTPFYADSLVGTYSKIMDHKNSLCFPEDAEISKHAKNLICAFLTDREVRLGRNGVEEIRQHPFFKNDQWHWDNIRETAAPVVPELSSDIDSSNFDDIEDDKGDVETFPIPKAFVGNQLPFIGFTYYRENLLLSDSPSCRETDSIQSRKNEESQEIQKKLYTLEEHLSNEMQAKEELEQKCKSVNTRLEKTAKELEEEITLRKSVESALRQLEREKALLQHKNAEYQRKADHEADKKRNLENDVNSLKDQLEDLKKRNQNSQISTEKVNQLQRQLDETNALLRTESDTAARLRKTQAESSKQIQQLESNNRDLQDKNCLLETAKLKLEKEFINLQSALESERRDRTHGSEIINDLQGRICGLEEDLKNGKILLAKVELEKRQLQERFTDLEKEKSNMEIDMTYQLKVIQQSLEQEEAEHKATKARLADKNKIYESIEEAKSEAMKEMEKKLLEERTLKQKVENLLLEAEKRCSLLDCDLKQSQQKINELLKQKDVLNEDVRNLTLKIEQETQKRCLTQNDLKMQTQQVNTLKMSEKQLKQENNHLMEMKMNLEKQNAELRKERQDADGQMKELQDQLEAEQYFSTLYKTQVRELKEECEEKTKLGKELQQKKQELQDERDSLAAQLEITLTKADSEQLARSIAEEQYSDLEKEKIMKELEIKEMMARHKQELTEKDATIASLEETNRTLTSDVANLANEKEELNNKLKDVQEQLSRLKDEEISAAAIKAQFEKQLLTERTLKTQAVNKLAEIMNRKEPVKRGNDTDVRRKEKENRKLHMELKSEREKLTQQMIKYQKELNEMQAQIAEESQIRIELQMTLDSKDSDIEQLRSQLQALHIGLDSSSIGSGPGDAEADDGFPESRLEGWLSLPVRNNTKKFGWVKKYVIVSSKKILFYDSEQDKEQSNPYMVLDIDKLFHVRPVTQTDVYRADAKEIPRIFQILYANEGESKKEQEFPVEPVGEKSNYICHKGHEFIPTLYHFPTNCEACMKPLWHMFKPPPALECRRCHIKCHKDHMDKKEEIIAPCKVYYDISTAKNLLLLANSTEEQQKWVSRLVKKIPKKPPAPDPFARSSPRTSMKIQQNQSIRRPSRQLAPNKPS

SMILES | IC50 [nM]
NC(=O)c1cccnc1O[C@H]1CC2(C[C@H](NC(=O)c3cnc4cc(OCCN5CCCC5)ccn34)C2)C1 (stereo partly drawn) [Example 325, N-((aR)-6-((3-carbamoylpyridin-2-yl)oxy)spiro[3.3]heptan-2-yl)-7-(2-(pyrrolidin-1-yl)ethoxy)imidazo[1,2-a]pyridine-3-carboxamide] | 5 to 50
NC(=O)c1cccnc1O[C@H]1CC2(C[C@H](NC(=O)c3cnc4cc(N5CC[C@@H](O)C5)ccn34)C2)C1 (stereo partly drawn) [Example 326, N-((aR)-6-((3-carbamoylpyridin-2-yl)oxy)spiro[3.3]heptan-2-yl)-7-((R)-3-hydroxypyrrolidin-1-yl)imidazo[1,2-a]pyridine-3-carboxamide] | 5 to 50
NC(=O)c1cccnc1O[C@H]1CC2(C[C@H](NC(=O)c3cnc4ccc(F)cn34)C2)C1 (stereo partly drawn) [Example 327, N-((aR)-6-((3-carbamoylpyridin-2-yl)oxy)spiro[3.3]heptan-2-yl)-6-fluoroimidazo[1,2-a]pyridine-3-carboxamide] | 50 to 250
CC(O)c1ccn2c(C(=O)N[C@H]3CC4(C3)C[C@H](Oc3ncccc3C(N)=O)C4)cnc2c1 (stereo partly drawn) [Example 328, N-((aR)-6-((3-carbamoylpyridin-2-yl)oxy)spiro[3.3]heptan-2-yl)-7-(1-hydroxyethyl)imidazo[1,2-a]pyridine-3-carboxamide] | 50 to 250
NC(=O)c1cccnc1O[C@H]1CC2(C[C@H](NC(=O)c3cnc4cc(OCC(F)F)ccn34)C2)C1 (stereo partly drawn) [Example 331, N-((aR)-6-((3-carbamoylpyridin-2-yl)oxy)spiro[3.3]heptan-2-yl)-7-(2,2-difluoroethoxy)imidazo[1,2-a]pyridine-3-carboxamide] | 5 to 50
Cc1ccn2c(C(=O)N[C@H]3CC4(C3)C[C@H](Oc3ncccc3C(N)=O)C4)cnc2c1 (stereo partly drawn) [Example 335, N-((aR)-6-((3-carbamoylpyridin-2-yl)oxy)spiro[3.3]heptan-2-yl)-7-methylimidazo[1,2-a]pyridine-3-carboxamide] | 5 to 50
Cn1cc(-c2ccn3c(C(=O)N[C@H]4CC5(C4)C[C@H](Oc4ncccc4C(N)=O)C5)cnc3c2)cn1 (stereo partly drawn) [Example 337, N-((aR)-6-((3-carbamoylpyridin-2-yl)oxy)spiro[3.3]heptan-2-yl)-7-(1-methyl-1H-pyrazol-4-yl)imidazo[1,2-a]pyridine-3-carboxamide] | 5 to 50
NC(=O)c1cccnc1O[C@H]1CC2(C[C@H](NC(=O)c3cnn4cc(OC5CCC5)ccc34)C2)C1 (stereo partly drawn) [Example 338, N-((aR)-6-((3-carbamoylpyridin-2-yl)oxy)spiro[3.3]heptan-2-yl)-6-cyclobutoxypyrazolo[1,5-a]pyridine-3-carboxamide] | 5 to 50
NC(=O)c1cccnc1O[C@H]1CC2(C[C@H](NC(=O)c3cnn4cc(OC5CCS(=O)(=O)CC5)ccc34)C2)C1 (stereo partly drawn) [Example 339, N-((aR)-6-((3-carbamoylpyridin-2-yl)oxy)spiro[3.3]heptan-2-yl)-6-((1,1-dioxidotetrahydro-2H-thiopyran-4-yl)oxy)pyrazolo[1,5-a]pyridine-3-carboxamide] | 5 to 50
NC(=O)c1cccnc1O[C@H]1CC2(C[C@H](NC(=O)c3cnn4c(C5CC5)c(OCCOCC(F)(F)F)ccc34)C2)C1 (stereo partly drawn) [Example 340, N-((aR)-6-((3-carbamoylpyridin-2-yl)oxy)spiro[3.3]heptan-2-yl)-7-cyclopropyl-6-(2-(2,2,2-trifluoroethoxy)ethoxy)pyrazolo[1,5-a]pyridine-3-carboxamide] | 5 to 50

Second part, the compound after the results:

IC50 [nM] | SMILES
< 5 | NC(=O)c1cccnc1O[C@H]1CC2(C[C@H](NC(=O)c3cnc4cc(N5CCC(F)(F)C5)ccn34)C2)C1 (stereo partly drawn) [Example 323, N-((aR)-6-((3-carbamoylpyridin-2-yl)oxy)spiro[3.3]heptan-2-yl)-7-(3,3-difluoropyrrolidin-1-yl)imidazo[1,2-a]pyridine-3-carboxamide]
< 5 | NC(=O)c1cccnc1O[C@H]1CC2(C[C@H](NC(=O)c3cnc4cc(N5CCC(F)(F)CC5)ccn34)C2)C1 (stereo partly drawn) [Example 324, N-((aR)-6-((3-carbamoylpyridin-2-yl)oxy)spiro[3.3]heptan-2-yl)-7-(4,4-difluoropiperidin-1-yl)imidazo[1,2-a]pyridine-3-carboxamide]
< 5 | NC(=O)c1cccnc1O[C@H]1CC2(C[C@H](NC(=O)c3cnc4cc(N5CC[C@@H](F)C5)ccn34)C2)C1 (stereo partly drawn) [Example 329, N-((aR)-6-((3-carbamoylpyridin-2-yl)oxy)spiro[3.3]heptan-2-yl)-7-((R)-3-fluoropyrrolidin-1-yl)imidazo[1,2-a]pyridine-3-carboxamide]
5 to 50 | C[C@@H](O)COc1ccc2c(C(=O)N[C@H]3CC4(C3)C[C@H](Oc3ncccc3C(N)=O)C4)cnn2c1 (stereo partly drawn) [Example 330, N-((aR)-6-((3-carbamoylpyridin-2-yl)oxy)spiro[3.3]heptan-2-yl)-6-((R)-2-hydroxypropoxy)pyrazolo[1,5-a]pyridine-3-carboxamide]
5 to 50 | NC(=O)c1cccnc1O[C@H]1CC2(C[C@H](NC(=O)c3cnc4cc(OC(CF)CF)ccn34)C2)C1 (stereo partly drawn) [Example 332, N-((aR)-6-((3-carbamoylpyridin-2-yl)oxy)spiro[3.3]heptan-2-yl)-7-((1,3-difluoropropan-2-yl)oxy)imidazo[1,2-a]pyridine-3-carboxamide]
5 to 50 | C[C@H](O)COc1ccc2c(C(=O)N[C@H]3CC4(C3)C[C@H](Oc3ncccc3C(N)=O)C4)cnn2c1 (stereo partly drawn) [Example 333, N-((aR)-6-((3-carbamoylpyridin-2-yl)oxy)spiro[3.3]heptan-2-yl)-6-((S)-2-hydroxypropoxy)pyrazolo[1,5-a]pyridine-3-carboxamide]
50 to 250 | NC(=O)c1cccnc1O[C@H]1CC2(C[C@H](NC(=O)c3cnc4cc(C(F)(F)F)ccn34)C2)C1 (stereo partly drawn) [Example 334, N-((aR)-6-((3-carbamoylpyridin-2-yl)oxy)spiro[3.3]heptan-2-yl)-7-(trifluoromethyl)imidazo[1,2-a]pyridine-3-carboxamide]
5 to 50 | CN1CCN(c2ccn3c(C(=O)N[C@H]4CC5(C4)C[C@H](Oc4ncccc4C(N)=O)C5)cnc3c2)CC1 (stereo partly drawn) [Example 336, N-((aR)-6-((3-carbamoylpyridin-2-yl)oxy)spiro[3.3]heptan-2-yl)-7-(4-methylpiperazin-1-yl)imidazo[1,2-a]pyridine-3-carboxamide]
< 5 | NC(=O)c1cccnc1O[C@H]1CC2(C[C@H](NC(=O)c3cnn4c(C5CC5)c(OC(CF)CF)ccc34)C2)C1 (stereo partly drawn) [Example 341, N-((aR)-6-((3-carbamoylpyridin-2-yl)oxy)spiro[3.3]heptan-2-yl)-7-cyclopropyl-6-((1,3-difluoropropan-2-yl)oxy)pyrazolo[1,5-a]pyridine-3-carboxamide]
< 5 | NC(=O)c1cccnc1O[C@H]1CC2(C[C@H](NC(=O)c3cnn4c(C5CC5)c(OCC5CCCO5)ccc34)C2)C1 (stereo partly drawn) [Example 342, N-((aR)-6-((3-carbamoylpyridin-2-yl)oxy)spiro[3.3]heptan-2-yl)-7-cyclopropyl-6-((tetrahydrofuran-2-yl)methoxy)pyrazolo[1,5-a]pyridine-3-carboxamide]
5 to 50 | NC(=O)c1cccnc1O[C@H]1CC2(C[C@H](NC(=O)c3cnn4c(C5CC5)c(OC5COC5)ccc34)C2)C1 (stereo partly drawn) [Example 343, N-((aR)-6-((3-carbamoylpyridin-2-yl)oxy)spiro[3.3]heptan-2-yl)-7-cyclopropyl-6-(oxetan-3-yloxy)pyrazolo[1,5-a]pyridine-3-carboxamide]
